Results from patent US20260355212A1 (priority 2022, published 2026).
Read-outs that look alike come from different tables or passages of the source.

What was measured:
MERS Mpro = MERS Mpro (Middle East respiratory syndrome-related coronavirus, UniProt K9N7C7); test: biochemical; set-up: species or system MERS-CoV
HCoV-229E Mpro = HCoV-229E Mpro (Human coronavirus 229E, UniProt P0C6X1); test: HCoV-229E Mpro enzymatic inhibition assay (fluorescence); assay type: biochemical
HCoV-HKU1 Mpro = HCoV-HKU1 Mpro (Human coronavirus HKU1, UniProt P0C6X2); test: HCoV-HKU1 Mpro enzymatic inhibition assay (fluorescence); assay type: biochemical
Method in brief: (§1)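 E. coli-expressed Mpro + cpd, 30 min RT preinc; add fluorogenic substrate, 60 min 30 °C; read Ex/Em 340/490 nm. % inhibition vs DMSO and GC376 controls, corrected with no-enzyme compound blanks; IC50 by 4-parameter logistic fit.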

SARS-CoV-1 Mpro = SARS-CoV-1 Mpro (Severe acute respiratory syndrome coronavirus, UniProt P0C6X7); test: biochemical
HCoV-OC43 Mpro = HCoV-OC43 Mpro (Human coronavirus OC43, UniProt P0C6X6); test: HCoV-OC43 Mpro enzymatic inhibition assay (fluorescence); assay type: biochemical
Method in brief: as §1

HCoV-NL63 Mpro = HCoV-NL63 Mpro (Human coronavirus NL63, UniProt P0C6X5); test: HCoV-NL63 Mpro enzymatic inhibition assay (fluorescence); assay type: biochemical
Method in brief: as §1

SARS-CoV-2 Mpro = SARS-CoV-2 Mpro (Severe acute respiratory syndrome coronavirus 2, UniProt P0DTD1); test: SARS-CoV-2 Mpro enzymatic inhibition assay (fluorescence); assay type: biochemical
Method in brief: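 A fluorescence readout (340 nm excitation, 490 nm emission) was taken after the substrate reaction ran 60 min at 30° C. Before substrate addition, E. coli-expressed protease and compound (3-fold dilutions, 10 doses, duplicates) sat together 30 min at room temperature. Percent inhibition was fitted by variable-slope nonlinear regression to give IC50.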

[1] = mean, 25 nM protein, 25 μM substrate, 30 min pre-incubation, 60 min at 30° C., read-out: Mpro_SARS-CoV-2 mean IC50

HCoV-229E Mpro, sequence (P0C6X1 2966-3267 limits assumed): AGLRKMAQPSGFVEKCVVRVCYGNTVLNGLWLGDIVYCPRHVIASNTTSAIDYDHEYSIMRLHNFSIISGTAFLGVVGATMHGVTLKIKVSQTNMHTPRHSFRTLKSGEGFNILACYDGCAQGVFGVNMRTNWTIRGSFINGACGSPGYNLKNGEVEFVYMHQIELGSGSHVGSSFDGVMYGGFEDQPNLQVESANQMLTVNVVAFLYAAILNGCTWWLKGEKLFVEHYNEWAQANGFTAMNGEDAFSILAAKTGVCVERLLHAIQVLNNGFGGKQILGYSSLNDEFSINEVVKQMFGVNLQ
HCoV-HKU1 Mpro, sequence (P0C6X2 3335-3637 limits assumed): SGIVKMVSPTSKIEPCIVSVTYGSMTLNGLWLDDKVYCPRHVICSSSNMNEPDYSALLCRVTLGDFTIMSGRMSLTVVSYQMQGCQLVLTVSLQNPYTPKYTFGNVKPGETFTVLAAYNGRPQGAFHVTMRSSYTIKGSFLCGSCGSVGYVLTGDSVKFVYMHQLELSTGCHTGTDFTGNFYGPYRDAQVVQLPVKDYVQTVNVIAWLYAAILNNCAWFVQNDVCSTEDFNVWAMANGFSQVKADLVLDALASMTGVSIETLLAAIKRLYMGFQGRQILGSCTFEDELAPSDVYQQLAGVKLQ
HCoV-OC43 Mpro, sequence (P0C6X6 3247-3549 limits assumed): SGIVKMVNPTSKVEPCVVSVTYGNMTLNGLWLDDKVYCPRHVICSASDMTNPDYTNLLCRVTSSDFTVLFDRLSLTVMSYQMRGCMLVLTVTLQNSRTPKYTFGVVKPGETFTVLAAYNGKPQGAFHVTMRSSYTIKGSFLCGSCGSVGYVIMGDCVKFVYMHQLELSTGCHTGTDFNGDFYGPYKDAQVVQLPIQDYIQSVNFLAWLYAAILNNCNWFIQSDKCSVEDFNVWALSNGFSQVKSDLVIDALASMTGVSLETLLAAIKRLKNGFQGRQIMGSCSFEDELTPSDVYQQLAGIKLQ
MERS Mpro, sequence (K9N7C7 3248-3553 limits assumed): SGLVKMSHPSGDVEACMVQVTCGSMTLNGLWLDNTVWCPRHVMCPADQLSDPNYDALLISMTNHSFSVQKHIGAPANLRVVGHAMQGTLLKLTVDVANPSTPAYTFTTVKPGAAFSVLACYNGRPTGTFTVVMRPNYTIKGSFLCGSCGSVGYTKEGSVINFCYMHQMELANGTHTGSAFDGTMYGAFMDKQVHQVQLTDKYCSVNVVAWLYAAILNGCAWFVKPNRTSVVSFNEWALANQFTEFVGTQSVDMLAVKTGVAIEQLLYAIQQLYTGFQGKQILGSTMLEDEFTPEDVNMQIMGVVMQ
HCoV-NL63 Mpro, sequence (P0C6X5 2940-3242 limits assumed): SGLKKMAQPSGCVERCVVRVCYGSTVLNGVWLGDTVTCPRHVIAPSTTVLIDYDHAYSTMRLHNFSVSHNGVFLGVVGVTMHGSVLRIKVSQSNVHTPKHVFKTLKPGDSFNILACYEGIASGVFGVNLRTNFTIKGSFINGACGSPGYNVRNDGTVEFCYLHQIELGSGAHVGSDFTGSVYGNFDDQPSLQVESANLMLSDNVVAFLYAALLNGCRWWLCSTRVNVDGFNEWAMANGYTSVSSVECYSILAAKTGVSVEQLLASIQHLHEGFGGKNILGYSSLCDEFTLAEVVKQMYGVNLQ

| Structure (SMILES) | IC50 (MERS Mpro) | IC50 (HCoV-229E Mpro) | IC50 (HCoV-HKU1 Mpro) | IC50 (SARS-CoV-1 Mpro) | IC50 (HCoV-OC43 Mpro) | IC50 (HCoV-NL63 Mpro) | IC50 (SARS-CoV-2 Mpro) | IC50 (SARS-CoV-2 Mpro; [1]) |
| --- | --- | --- | --- | --- | --- | --- | --- | --- |
| CC1(C)[C@@H]2[C@@H](C(=O)N[C@H](C=O)C[C@@H]3CCNC3=O)N(C(=O)CN3CCCCCC3)C[C@@H]21 [Compound 55, (1R,2S,5S)-3-(2-(Azepan-1-yl)acetyl)-6,6-dimethyl-N—((S)-1-oxo-3-((S)-2-oxopyrrolidin-3-yl)propan-2-yl)-3-azabicyclo[3.1.0]hexane-2-carboxamide] | 317 nM | 39.3 nM | 54.8 nM | 74.6 nM | 81 nM | 70.2 nM | 25.5 nM |  |
| COc1ccc2cc(C(=O)N3C[C@H]4[C@@H]([C@H]3C(=O)N[C@H](C=O)C[C@@H]3CCNC3=O)C4(C)C)[nH]c2c1 [Compound 56, (1R,2S,5S)-3-(6-Methoxy-1H-indole-2-carbonyl)-6,6-dimethyl-N—((S)-1-oxo-3-((S)-2-oxopyrrolidin-3-yl)propan-2-yl)-3-azabicyclo[3.1.0]hexane-2-carboxamide] | 291 nM | 42.6 nM | 12.8 nM | 64.7 nM | 59.8 nM | 59.9 nM | 25.7 nM |  |
| CC1(C)C[C@@H](C(=O)N[C@H](C=O)C[C@@H]2CCNC2=O)N(C(=O)c2cc3cccc(C#N)c3[nH]2)C1 [Compound 58, (S)-1-(7-Cyano-1H-indole-2-carbonyl)-4,4-dimethyl-N—((S)-1-oxo-3-((S)-2-oxopyrrolidin-3-yl)propan-2-yl)pyrrolidine-2-carboxamide] | 338 nM | 28.5 nM | 19 nM | 62.8 nM | 56.3 nM | 40.7 nM | 25.8 nM |  |
| CC1(C)[C@@H]2[C@@H](C(=O)N[C@H](C=O)C[C@@H]3CCNC3=O)N(C(=O)c3cc4c(C#N)cccc4[nH]3)C[C@@H]21 [Compound 59, (1R,2S,5S)-3-(4-Cyano-1H-indole-2-carbonyl)-6,6-dimethyl-N—((S)-1-oxo-3-((S)-2-oxopyrrolidin-3-yl)propan-2-yl)-3-azabicyclo[3.1.0]hexane-2-carboxamide] | 230 nM | 42.6 nM | 22.9 nM | 83.4 nM | 57.5 nM | 64.1 nM |  | 26 nM |
| CC1(C)[C@@H]2[C@@H](C(=O)N[C@H](C=O)C[C@@H]3CCNC3=O)N(C(=O)c3cc4ccccc4[nH]3)C[C@@H]21 [Compound 60, (1R,2S,5S)-3-(1H-Indole-2-carbonyl)-6,6-dimethyl-N—((S)-1-oxo-3-((S)-2-oxopyrrolidin-3-yl)propan-2-yl)-3-azabicyclo[3.1.0]hexane-2-carboxamide] | 273 nM | 53.7 nM | 28.9 nM | 52 nM | 94.9 nM | 54 nM |  | 26 nM |
| O=C[C@H](C[C@@H]1CCNC1=O)NC(=O)[C@@H]1C[C@@H](C2CCCCC2)CN1C(=O)c1cc2ccccc2[nH]1 [Compound 61, (2S,4S)-4-Cyclohexyl-1-(1H-indole-2-carbonyl)-N—((S)-1-oxo-3-((S)-2-oxopyrrolidin-3-yl)propan-2-yl)pyrrolidine-2-carboxamide] | 438 nM | 43.2 nM | 12.6 nM | 147 nM | 38.7 nM | 200 nM |  | 26 nM |
| CC1(C)C[C@@H](C(=O)N[C@H](C=O)C[C@@H]2CCNC2=O)N(C(=O)c2cc3cccc(F)c3[nH]2)C1 [Compound 62, (S)-1-(7-Fluoro-1H-indole-2-carbonyl)-4,4-dimethyl-N—((S)-1-oxo-3-((S)-2-oxopyrrolidin-3-yl)propan-2-yl)pyrrolidine-2-carboxamide] | 535 nM | 64.4 nM | 55.7 nM | 77.1 nM | 145 nM | 90.7 nM | 26.3 nM |  |
| CC1(C)[C@@H]2[C@@H](C(=O)N[C@H](C=O)C[C@@H]3CCNC3=O)N(C(=O)CC3CCCCC3(F)F)C[C@@H]21 (stereo partly drawn) [Compound 64, (1R,2S,5S)-3-(2-(2,2-Difluorocyclohexyl)acetyl)-6,6-dimethyl-N—((S)-1-oxo-3-((S)-2-oxopyrrolidin-3-yl)propan-2-yl)-3-azabicyclo[3.1.0]hexane-2-carboxamide] | 224 nM | 53.2 nM | 46.5 nM | 46.6 nM | 65.8 nM | 105 nM | 27 nM |  |
| COc1cccc2[nH]c(C(=O)N3C[C@H]4[C@@H]([C@H]3C(=O)N[C@H](C=O)C[C@@H]3CCNC3=O)C4(C)C)cc12 [Compound 65, (1R,2S,5S)-3-(4-Methoxy-1H-indole-2-carbonyl)-6,6-dimethyl-N—((S)-1-oxo-3-((S)-2-oxopyrrolidin-3-yl)propan-2-yl)-3-azabicyclo[3.1.0]hexane-2-carboxamide] | 320 nM | 38 nM | 21.1 nM | 33.1 nM | 25.2 nM | 24.1 nM |  | 27 nM |
| C[C@@H](C(=O)N1C[C@H]2[C@@H]([C@H]1C(=O)N[C@H](C=O)C[C@@H]1CCNC1=O)C2(C)C)C1CCCCC1 [Compound 67, (1R,2S,5S)-3-((R)-2-Cyclohexylpropanoyl)-6,6-dimethyl-N—((S)-1-oxo-3-((S)-2-oxopyrrolidin-3-yl)propan-2-yl)-3-azabicyclo[3.1.0]hexane-2-carboxamide] | 170 nM | 27.3 nM | 10.8 nM | 44.1 nM | 33.2 nM | 51.8 nM | 27.8 nM |  |
| Cc1cc(Cl)cc2cc(C(=O)N3C[C@H]4[C@@H]([C@H]3C(=O)N[C@H](C=O)C[C@@H]3CCNC3=O)C4(C)C)[nH]c12 [Compound 69, (1R,2S,5S)-3-(5-Chloro-7-methyl-1H-indole-2-carbonyl)-6,6-dimethyl-N—((S)-1-oxo-3-((S)-2-oxopyrrolidin-3-yl)propan-2-yl)-3-azabicyclo[3.1.0]hexane-2-carboxamide] | 476 nM | 50.5 nM | 32.6 nM | 48.8 nM | 79.8 nM | 80.7 nM | 29.2 nM |  |
| O=C[C@H](C[C@@H]1CCNC1=O)NC(=O)[C@@H]1C[C@@H](C2CCCCC2)CN1C(=O)c1cc2cccc(F)c2[nH]1 [Compound 71, (2S,4S)-4-cyclohexyl-1-(7-fluoro-1H-indole-2-carbonyl)-N—((S)-1-oxo-3-((S)-2-oxopyrrolidin-3-yl)propan-2-yl)pyrrolidine-2-carboxamide] | 1420 nM | 53.5 nM | 34.9 nM | 95.6 nM | 133 nM | 414 nM | 30.4 nM |  |
| Cc1ccc2cc(C(=O)N3C[C@H]4[C@@H]([C@H]3C(=O)N[C@H](C=O)C[C@@H]3CCNC3=O)C4(C)C)[nH]c2c1 [Compound 72, (1R,2S,5S)-6,6-Dimethyl-3-(6-methyl-1H-indole-2-carbonyl)-N—((S)-1-oxo-3-((S)-2-oxopyrrolidin-3-yl)propan-2-yl)-3-azabicyclo[3.1.0]hexane-2-carboxamide] | 346 nM | 30.1 nM | 20.8 nM | 58.9 nM | 49.4 nM | 21.7 nM | 31.3 nM |  |
| CC(C)(C)CCC(=O)N1C[C@H]2[C@@H]([C@H]1C(=O)N[C@H](C=O)C[C@@H]1CCNC1=O)C2(C)C [Compound 73, (1R,2S,5S)-3-(4,4-Dimethylpentanoyl)-6,6-dimethyl-N—((S)-1-oxo-3-((S)-2-oxopyrrolidin-3-yl)propan-2-yl)-3-azabicyclo[3.1.0]hexane-2-carboxamide] | 326 nM | 62.6 nM | 57.5 nM | 63.1 nM | 71.4 nM | 182 nM |  | 31.8 nM |
| CC1(C)[C@@H]2[C@@H](C(=O)N[C@H](C=O)C[C@@H]3CCNC3=O)N(C(=O)c3cc4ccc(C#N)cc4[nH]3)C[C@@H]21 [Compound 74, (1R,2S,5S)-3-(6-Cyano-1H-indole-2-carbonyl)-6,6-dimethyl-N—((S)-1-oxo-3-((S)-2-oxopyrrolidin-3-yl)propan-2-yl)-3-azabicyclo[3.1.0]hexane-2-carboxamide] | 479 nM | 55.3 nM | 40.9 nM | 61.4 nM | 86.4 nM | 86.8 nM | 32 nM |  |
| N#Cc1cccc2cc(C(=O)N3C[C@H](C4CCCCC4)C[C@H]3C(=O)N[C@H](C=O)C[C@@H]3CCNC3=O)[nH]c12 [Compound 75, (2S,4S)-1-(7-cyano-1H-indole-2-carbonyl)-4-cyclohexyl-N—((S)-1-oxo-3-((S)-2-oxopyrrolidin-3-yl)propan-2-yl)pyrrolidine-2-carboxamide] | 604 nM | 64 nM | 16.6 nM | 66 nM | 57 nM | 754 nM | 32.3 nM |  |
